In PubChem BioAssay (NCI):
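Growth conditions: 96-well plates. Treatment: test compound, 48 hours, 5 concentrations. Analysis: linear interpolation between bracketing concentrations; unreached endpoints set to highest concentration. The concentration for full growth arrest is given as TGI.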

Columns and labels:
Experiment in all cases: growth of human tumour cells (NCI), 48 h
SF-268 CNS = test system: SF-268 CNS
OVCAR-4 ovarian = test system: OVCAR-4 ovarian
NCI-H522 lung = test system: NCI-H522 lung
UO-31 renal = test system: UO-31 renal
NCI-H460 lung = test system: NCI-H460 lung
SW-620 colon = test system: SW-620 colon
DU-145 prostate = test system: DU-145 prostate
SK-OV-3 ovarian = test system: SK-OV-3 ovarian
EKVX NSCLC = test system: EKVX NSCLC
OVCAR-3 ovarian = test system: OVCAR-3 ovarian
T-47D breast = test system: T-47D breast
NCI-H23 lung = test system: NCI-H23 lung
K-562 leukemia = test system: K-562 leukemia
MDA-MB-435 = test system: MDA-MB-435
SK-MEL-2 melanoma = test system: SK-MEL-2 melanoma
LOX IMVI melanoma = test system: LOX IMVI melanoma
SN12C renal = test system: SN12C renal
IGROV1 ovarian = test system: IGROV1 ovarian
HCC-2998 colon = test system: HCC-2998 colon
SNB-75 CNS = test system: SNB-75 CNS
BT-549 breast = test system: BT-549 breast
A549 NSCLC = test system: A549 NSCLC
NCI-H226 lung = test system: NCI-H226 lung
HOP-62 NSCLC = test system: HOP-62 NSCLC
NCI/ADR-RES ovarian = test system: NCI/ADR-RES ovarian
MDA-N = test system: MDA-N
HT29 colon = test system: HT29 colon
UACC-257 melanoma = test system: UACC-257 melanoma
COLO 205 colon = test system: COLO 205 colon
HOP-92 NSCLC = test system: HOP-92 NSCLC
TK-10 renal = test system: TK-10 renal
MALME-3M melanoma = test system: MALME-3M melanoma
SNB-19 CNS = test system: SNB-19 CNS
SK-MEL-28 melanoma = test system: SK-MEL-28 melanoma
OVCAR-5 ovarian = test system: OVCAR-5 ovarian
OVCAR-8 ovarian = test system: OVCAR-8 ovarian
786-0 renal = test system: 786-0 renal
SR leukemia = test system: SR leukemia
U251 CNS = test system: U251 CNS
PC-3 prostate = test system: PC-3 prostate
SF-295 CNS = test system: SF-295 CNS
M14 melanoma = test system: M14 melanoma
MCF7 breast = test system: MCF7 breast
CCRF-CEM leukemia = test system: CCRF-CEM leukemia
MOLT-4 leukemia = test system: MOLT-4 leukemia
UACC-62 melanoma = test system: UACC-62 melanoma
RXF 393 renal = test system: RXF 393 renal
KM12 colon = test system: KM12 colon
HL-60(TB) leukemia = test system: HL-60(TB) leukemia
HCT-116 colon = test system: HCT-116 colon
ACHN renal = test system: ACHN renal
HCT-15 colon = test system: HCT-15 colon
HS 578T breast = test system: HS 578T breast
A498 renal = test system: A498 renal
SK-MEL-5 melanoma = test system: SK-MEL-5 melanoma
SF-539 CNS = test system: SF-539 CNS
MDA-MB-231 breast = test system: MDA-MB-231 breast
CAKI-1 renal = test system: CAKI-1 renal

With `CCCNC(C#N)c1ccc(OCCCCCCCCCCOc2ccc(C(C#N)NCCC)cc2)cc1` (stereo not drawn) the TGI (SF-268 CNS) was greater than 100 µM, the TGI (OVCAR-4 ovarian) was greater than 100 µM and the TGI (NCI-H522 lung) was greater than 100 µM. It also gave a TGI (UO-31 renal) greater than 100 µM, a TGI (NCI-H460 lung) greater than 100 µM and a TGI (SW-620 colon) greater than 100 µM. It also gave a TGI (DU-145 prostate) greater than 100 µM, a TGI (SK-OV-3 ovarian) greater than 100 µM and a TGI (EKVX NSCLC) greater than 100 µM. The TGI (OVCAR-3 ovarian) was 81.1 µM, the TGI (T-47D breast) was greater than 100 µM and the TGI (NCI-H23 lung) was greater than 100 µM. It also gave a TGI (K-562 leukemia) of 76.3 µM, a TGI (MDA-MB-435) greater than 100 µM and a TGI (SK-MEL-2 melanoma) greater than 100 µM. The TGI (LOX IMVI melanoma) was 34.6 µM, the TGI (SN12C renal) was greater than 100 µM and the TGI (IGROV1 ovarian) was greater than 100 µM. It also gave a TGI (HCC-2998 colon) greater than 100 µM, a TGI (SNB-75 CNS) greater than 100 µM and a TGI (BT-549 breast) greater than 100 µM. For the same compound, the TGI (A549 NSCLC) was greater than 100 µM, the TGI (NCI-H226 lung) was 93.9 µM and the TGI (HOP-62 NSCLC) was greater than 100 µM. For the same compound, the TGI (NCI/ADR-RES ovarian) was greater than 100 µM, the TGI (MDA-N) was greater than 100 µM and the TGI (HT29 colon) was greater than 100 µM. It also gave a TGI (UACC-257 melanoma) greater than 100 µM, a TGI (COLO 205 colon) greater than 100 µM and a TGI (HOP-92 NSCLC) of 66.1 µM. The TGI (TK-10 renal) was 69.2 µM, the TGI (MALME-3M melanoma) was greater than 100 µM and the TGI (SNB-19 CNS) was greater than 100 µM. For the same compound, the TGI (SK-MEL-28 melanoma) was greater than 100 µM, the TGI (OVCAR-5 ovarian) was greater than 100 µM and the TGI (OVCAR-8 ovarian) was greater than 100 µM. The TGI (786-0 renal) was greater than 100 µM, the TGI (SR leukemia) was 61.3 µM and the TGI (U251 CNS) was 42.7 µM. For the same compound, the TGI (PC-3 prostate) was greater than 100 µM, the TGI (SF-295 CNS) was greater than 100 µM and the TGI (M14 melanoma) was greater than 100 µM. The TGI (MCF7 breast) was greater than 100 µM, the TGI (CCRF-CEM leukemia) was 43.7 µM and the TGI (MOLT-4 leukemia) was 39.8 µM. It also gave a TGI (UACC-62 melanoma) greater than 100 µM, a TGI (RXF 393 renal) of 65.1 µM and a TGI (KM12 colon) greater than 100 µM. It also gave a TGI (HL-60(TB) leukemia) of 43 µM, a TGI (HCT-116 colon) greater than 100 µM and a TGI (ACHN renal) greater than 100 µM. The TGI (HCT-15 colon) was greater than 100 µM, the TGI (HS 578T breast) was greater than 100 µM and the TGI (A498 renal) was 42.7 µM. For the same compound, the TGI (SK-MEL-5 melanoma) was greater than 100 µM, the TGI (SF-539 CNS) was greater than 100 µM and the TGI (MDA-MB-231 breast) was greater than 100 µM.
With `COc1ccc(CC2c3cc(OC)c(OC)c(OC)c3CC[N+]2(C)C)cc1Oc1ccc(CC2c3cc4c(c(OC)c3CCN2C)OCO4)cc1` (stereo not drawn) the TGI (SF-268 CNS) was greater than 100 µM, the TGI (OVCAR-4 ovarian) was greater than 100 µM and the TGI (NCI-H522 lung) was greater than 100 µM. It also gave a TGI (UO-31 renal) greater than 100 µM, a TGI (NCI-H460 lung) greater than 100 µM and a TGI (SW-620 colon) greater than 100 µM. It also gave a TGI (DU-145 prostate) greater than 100 µM, a TGI (SK-OV-3 ovarian) greater than 100 µM and a TGI (CAKI-1 renal) greater than 100 µM. For the same compound, the TGI (EKVX NSCLC) was greater than 100 µM, the TGI (OVCAR-3 ovarian) was greater than 100 µM and the TGI (T-47D breast) was greater than 100 µM. For the same compound, the TGI (NCI-H23 lung) was greater than 100 µM, the TGI (K-562 leukemia) was greater than 100 µM and the TGI (MDA-MB-435) was greater than 100 µM. For the same compound, the TGI (SK-MEL-2 melanoma) was greater than 100 µM, the TGI (LOX IMVI melanoma) was greater than 100 µM and the TGI (SN12C renal) was greater than 100 µM. For the same compound, the TGI (IGROV1 ovarian) was greater than 100 µM, the TGI (HCC-2998 colon) was greater than 100 µM and the TGI (SNB-75 CNS) was greater than 100 µM. For the same compound, the TGI (BT-549 breast) was greater than 100 µM, the TGI (A549 NSCLC) was greater than 100 µM and the TGI (NCI-H226 lung) was greater than 100 µM. The TGI (NCI/ADR-RES ovarian) was greater than 100 µM, the TGI (MDA-N) was greater than 100 µM and the TGI (HT29 colon) was greater than 100 µM. For the same compound, the TGI (UACC-257 melanoma) was greater than 100 µM, the TGI (COLO 205 colon) was greater than 100 µM and the TGI (HOP-92 NSCLC) was greater than 100 µM. The TGI (TK-10 renal) was greater than 100 µM, the TGI (MALME-3M melanoma) was greater than 100 µM and the TGI (SNB-19 CNS) was greater than 100 µM. For the same compound, the TGI (SK-MEL-28 melanoma) was greater than 100 µM, the TGI (OVCAR-5 ovarian) was greater than 100 µM and the TGI (OVCAR-8 ovarian) was greater than 100 µM. For the same compound, the TGI (786-0 renal) was greater than 100 µM, the TGI (SR leukemia) was greater than 100 µM and the TGI (U251 CNS) was greater than 100 µM. For the same compound, the TGI (PC-3 prostate) was greater than 100 µM, the TGI (SF-295 CNS) was greater than 100 µM and the TGI (M14 melanoma) was greater than 100 µM. It also gave a TGI (MCF7 breast) greater than 100 µM, a TGI (MOLT-4 leukemia) greater than 100 µM and a TGI (UACC-62 melanoma) greater than 100 µM. For the same compound, the TGI (RXF 393 renal) was greater than 100 µM, the TGI (KM12 colon) was greater than 100 µM and the TGI (HL-60(TB) leukemia) was 89.7 µM. For the same compound, the TGI (HCT-116 colon) was greater than 100 µM, the TGI (ACHN renal) was greater than 100 µM and the TGI (HCT-15 colon) was greater than 100 µM. It also gave a TGI (HS 578T breast) greater than 100 µM, a TGI (A498 renal) greater than 100 µM and a TGI (SK-MEL-5 melanoma) greater than 100 µM. For the same compound, the TGI (SF-539 CNS) was greater than 100 µM and the TGI (MDA-MB-231 breast) was greater than 100 µM.
